Assay results: patent US11564911B2, “Small molecule dual-inhibitors of TRPV4 and TRPA1 for sanitizing and anesthetizing” (Duke University, priority 2016, dated 2023)

Columns and labels:
human TRPV3 = target: T1, human TRPV3 (Homo sapiens, UniProt Q8NET8); assay: Ca2+ signal in N2a cells transfected with human TRPV3 (camphor); type: cell-based; settings: camphor stimulation
T1 construct: expressed in transfected cells; host or cells: N2a cells
Protocol: (§1) Compounds were tested for their effect on TRPV1, TRPV2, and TRPV3. Methods were similar to those described in Example 15. Briefly, N2a cells were transfected with human TRPV1, TRPV2, or TRPV3. eGFP-transfection was used as control. For specific stimulation of TRPV1, 5 μM capsaicin was used. For stimulation of TRPV2, hypotonicity (260 mosmol/L) was used, based on previous reports of TRPV2 being osmotically responsive. N2a cells were not responsive to hypotonicity, and neither were control-transfected cells. For TRPV3-expressing cells, camphor (20% of a commercially available stock solution) was used. […] Stimulation and control protocols were applied as for TRPA1-expressing N2a cells as detailed above in Example 15.

human TRPV2 = target: T2, human TRPV2 (Homo sapiens, UniProt Q9Y5S1); assay: Ca2+ signal in N2a cells transfected with human TRPV2 (hypotonicity); type: cell-based; settings: hypotonicity 260 mosmol/L
T2 construct: expressed in transfected cells; host or cells: N2a cells
T2 sequence (Q9Y5S1 whole entry): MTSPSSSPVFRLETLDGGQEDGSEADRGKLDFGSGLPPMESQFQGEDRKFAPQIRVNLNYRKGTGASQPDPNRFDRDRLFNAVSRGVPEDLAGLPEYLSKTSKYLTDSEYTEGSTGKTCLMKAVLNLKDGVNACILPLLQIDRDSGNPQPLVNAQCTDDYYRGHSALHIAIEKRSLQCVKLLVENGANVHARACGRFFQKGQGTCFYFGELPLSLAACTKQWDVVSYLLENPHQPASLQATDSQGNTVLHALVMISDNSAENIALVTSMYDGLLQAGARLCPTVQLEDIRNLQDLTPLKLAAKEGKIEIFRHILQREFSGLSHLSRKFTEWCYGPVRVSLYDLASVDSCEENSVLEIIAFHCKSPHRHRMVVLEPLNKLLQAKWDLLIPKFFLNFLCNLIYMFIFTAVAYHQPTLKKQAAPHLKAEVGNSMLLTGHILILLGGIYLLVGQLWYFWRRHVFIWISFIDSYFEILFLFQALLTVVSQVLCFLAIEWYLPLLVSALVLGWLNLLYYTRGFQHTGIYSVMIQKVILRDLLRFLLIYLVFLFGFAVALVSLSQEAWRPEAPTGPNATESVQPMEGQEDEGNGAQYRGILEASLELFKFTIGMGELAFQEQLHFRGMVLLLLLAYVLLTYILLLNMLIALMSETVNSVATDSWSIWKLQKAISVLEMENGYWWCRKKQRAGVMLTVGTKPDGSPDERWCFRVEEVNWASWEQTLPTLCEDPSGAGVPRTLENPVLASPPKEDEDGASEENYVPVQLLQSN
Protocol: as §1

[1] = Compound concentration in tissues/organs and plasma by LC-MS/MS after i.p. injection; type: in vivo, mouse; settings: 10 mg/kg i.p.; for compound concentration in liver and kidney / compound concentration in plasma / concentration at 1 h: 1 h; for concentration at 1 h: mouse, heart, brain, brainstem, trigeminal ganglion, skin, intraperitoneal
Protocol: Mice were treated with 10 mg/kg i.p. of the respective inhibitor. Post-euthanasia harvested tissue was frozen in liquid nitrogen and stored at −80° C. for further analysis.
Frozen tissue samples were partially thawed and cut into 1 mm slices, 5-15 mg tissue, 2-fold excess water (mass/vol.), 6-fold excess acetonitrile (16- . . . compounds) or methanol (GSK205) containing appropriate amount of internal standard, and 2.5 mm zirconia/silica bead (Biospec Products Inc.) were added to 500-μL polypropyl-ene (PP) conical tube, homogenized in a Fast-Prep apparatus (Thermo-Savant) at speed “4” for 20 sec at room temp, and centrifuged at 13,600 g for 5 min at room temp. Depending on the expected concentration range of the measured compound, the supernatant was diluted 1/4-1/20 (in Mobile phase A, see below) and placed in autosampler for LC-MS/MS analysis.
The LC-MS/MS assay for 16- . . . compounds and GSK205 was developed on an Agilent 1200 series LC system interfaced with Applied Biosystems API 5500QTrap, a hybrid triple quadruple-linear trap MS/MS spectrometer.
Analyst (version 1.6.1) software was used for mass parameters tuning, data acquisition, and quantification. LC column: 3×4 mm RP C18 (Phenomenex, AJ0-4287) was operated at 35° C. Mobile phase A: 0.1% formic acid, 2% acetonitrile, in LC/MS-grade water; mobile phase B: acetonitrile; flow rate: 1 mL/min, 1:1 MS/MS:waste split. Run time was 4 min. Diverter valve was used to send flow to MS/MS only between 1.2 and 2.5 min. The elution gradi-ent was: 0-0.5 min, 1% B; 0.5-1.2 min, 1-95% B; 1.2-1.5 min, 95% B; 1.5-1.6 min, 95-1% B. Autosampler was oper-ated at 4° C.; injection volume was kept at 10-50 μL. Electrospray ionization (ESI) source parameters were: positive ionization mode, curtain gas flow=30, ionization potential=5500 V, temperature=500° C., nebulizing gas 1 flow=30, nebulizing gas 2=30, declustering potential=20 V. 16- . . . compounds and GSK205 were individually infused as 100 nM solutions in 50% A/50% B at 10 μL/min flow rate and parameters optimized to provide maximal ion count for “parent” and collision-produced (“daughter”) MS/MS ions. Parent/daughter quantifier [qualifier] ions utilized: GSK205 (401.1/280[370]), 16-8 (400.1/279.1[91.1], 16-16 (387.1/280[105]), 16-18 (415.2/280[370], 16-19 (414.1/279.2[91.1]. Standard (analyte of interest)/internal standard pairs utilized: GSK205/16-16, 16-8/16-16, 16-18/GSK205, 16-19/16-8.
Calibration samples (n=6) were prepared by adding pure standard of the measured compound to tissue homogenate (tissue+2-fold excess water, mass/vol) in the appropriate range needed for the particular dosing regime. Organs studied were analyzed alongside the study samples. The following are typical ranges used (the lower value representing also the LLOQ at 80% accuracy limit, all other calibrator levels at 85% accuracy limit): 0.38-6 nM (plasma), 6-100 nM (skin), 6-48 nM (heart), 7.5-120 nM (brain), 19-300 or 1500-24000 nM (liver), 56-900 or 1500-12000 nM (kidney), 500-8000 nM (fat). Peak integration, calibration, and quantification was performed within Analyst software. The response of the peak area standard/int. std. to nominal concentration was linear with r=0.999 or better.

T1 sequence (Q8NET8 whole entry): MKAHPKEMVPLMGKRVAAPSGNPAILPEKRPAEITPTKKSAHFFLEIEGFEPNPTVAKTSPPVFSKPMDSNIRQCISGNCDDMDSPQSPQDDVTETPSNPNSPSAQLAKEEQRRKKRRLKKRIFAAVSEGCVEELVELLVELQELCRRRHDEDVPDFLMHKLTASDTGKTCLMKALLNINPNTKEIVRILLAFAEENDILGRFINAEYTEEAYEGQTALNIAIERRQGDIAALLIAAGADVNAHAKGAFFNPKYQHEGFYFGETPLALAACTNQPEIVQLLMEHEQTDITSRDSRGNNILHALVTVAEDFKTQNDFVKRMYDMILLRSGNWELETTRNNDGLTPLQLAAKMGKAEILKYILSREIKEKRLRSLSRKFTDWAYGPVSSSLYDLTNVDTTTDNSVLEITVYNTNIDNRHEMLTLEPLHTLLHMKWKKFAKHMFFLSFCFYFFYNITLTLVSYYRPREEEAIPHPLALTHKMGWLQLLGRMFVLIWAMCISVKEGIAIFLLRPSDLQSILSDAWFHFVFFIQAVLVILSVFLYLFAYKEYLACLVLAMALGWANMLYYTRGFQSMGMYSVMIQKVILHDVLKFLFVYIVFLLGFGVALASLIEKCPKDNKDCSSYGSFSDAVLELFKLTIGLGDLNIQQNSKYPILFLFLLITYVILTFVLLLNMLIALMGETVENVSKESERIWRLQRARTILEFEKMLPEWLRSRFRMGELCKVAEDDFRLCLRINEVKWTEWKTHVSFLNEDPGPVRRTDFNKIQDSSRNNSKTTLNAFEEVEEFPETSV

Compound	effect on Ca2+ transience, TRPV3 (human TRPV3)	effect on Ca2+ transience, TRPV2 (human TRPV2)	compound concentration in liver and kidney [1]	compound concentration in plasma [1]	concentration at the 6 h time-point compared to the 1 h time-point ([1]; several organs)	concentration at the 24 h time-point ([1]; several organs)	concentration at 1 h [1] [nM]	concentration in fat and pancreas after one hour [1]
CCN(CCc1ccc(Nc2nc(-c3ccccc3)cs2)cc1)Cc1ccccc1 [Compound 16-19]	not affected	not affected	micromolar/submicromolar	virtually undetectable	10-20 fold	lower than at the 6 h but higher than at the 1 h time-point	< 100	–
CN(CCc1ccc(Nc2nc(-c3ccccc3)cs2)cc1)Cc1ccccc1 [Compound 16-8]	not affected	not affected	micromolar/submicromolar	virtually undetectable	–	–	< 100	above its IC50
